Assay results as given in patent US9051325B2, “Bicyclic [5,6] imidazo pyrimodone compounds for use in the treatment of diseases or conditions mediated by Lp-PLA2” (GlaxoSmithKline Intellectual Property Development Limited, priority 2013, dated 2015).
Where two headings read alike, the source gives them in different places.

Key:
[1] = target: T1, recombinant human Lp-PLA2 (Homo sapiens, UniProt Q13093); assay: Recombinant human Lp-PLA2 assay (rhLp-PLA2, PED6 assay); format: biochemical
T1 sequence (Q13093 22-441): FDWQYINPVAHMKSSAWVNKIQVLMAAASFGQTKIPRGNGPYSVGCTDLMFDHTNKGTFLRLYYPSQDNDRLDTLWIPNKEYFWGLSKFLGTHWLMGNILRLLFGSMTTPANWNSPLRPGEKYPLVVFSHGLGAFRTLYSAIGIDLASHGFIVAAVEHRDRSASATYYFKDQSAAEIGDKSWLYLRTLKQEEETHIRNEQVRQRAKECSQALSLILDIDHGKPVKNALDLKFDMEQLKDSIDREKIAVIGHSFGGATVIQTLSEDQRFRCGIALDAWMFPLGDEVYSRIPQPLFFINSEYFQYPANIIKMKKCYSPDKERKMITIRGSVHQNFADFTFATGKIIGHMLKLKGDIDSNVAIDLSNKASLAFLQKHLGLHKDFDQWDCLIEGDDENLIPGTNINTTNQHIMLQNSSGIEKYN
Procedure, shortened: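 Compounds were preincubated 30 min with 4 nM […] rhLp-PLA2 in 50 mM HEPES pH 7.4, 150 mM NaCl, 1 mM CHAPS, then PED6 substrate […] was added for 20 min at room temperature in the dark. Fluorescence was read at ex 480/em 540, and pIC50 was fitted from 1:3 serial dilutions.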

Lp-PLA2 in human plasma = target: T2, Lp-PLA2 in human plasma (Homo sapiens, UniProt Q13093); assay: Lp-PLA2 human plasma assay (Thio-PAF assay); format: biochemical; settings: pooled human plasma; lower bounds; read-out: pIC50 values in the thio-PAF assay (converted)
T2 construct: from tissue; host or cells: pooled human plasma
T2 sequence (Q13093 22-441): T1 sequence (Q13093 22-441)
Procedure, shortened: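 Pooled human plasma preincubated 30 min with compounds, then given 2-thio-PAF substrate with CPM and NEM in 50 mM HEPES pH 7.4, 150 mM NaCl, 1 mM CHAPS. Reaction quenched after 2 min with TFA and read by fluorescence (ex 380/em 485) after 40 min at room temperature; pIC50 from curve fit.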

[2] = lower bounds, read-out: pIC50 values in the PED6 assay (converted)
[3] = read-out: rhLp-PLA2 (PED6 assay) (pIC50) (converted)

`CN1c2cc(OCc3ccc(Oc4ccnc(C(F)(F)F)c4)c(F)c3)nc(=O)n2CC1(C)C` [Example E59, 7-((3-fluoro-4-((2-(trifluoromethyl)pyridin-4-yl)oxy)benzyl)oxy)-1,2,2-trimethyl-2,3-dihydroimidazo[1,2-c]pyrimidin-5(1H)-one] was tested, and the IC50 [1, 2] was ≤ 1 nM, the IC50 [1, 3] was 0.0398 nM and the IC50 (Lp-PLA2 in human plasma) was ≤ 100 nM.
With `CN1c2cc(OCc3cc(F)c(Oc4ccc(C(F)(F)F)nc4)c(F)c3)nc(=O)n2CC1(C)C` [Example E60, 7-((3,5-difluoro-4-((6-(trifluoromethyl)pyridin-3-yl)oxy)benzyl)oxy)-1,2,2-trimethyl-2,3-dihydroimidazo[1,2-c]pyrimidin-5(1H)-one] the IC50 [1, 2] was ≤ 1 nM, the IC50 [1, 3] was 0.0398 nM and the IC50 (Lp-PLA2 in human plasma) was ≤ 100 nM.
For `CN1c2cc(OCc3cc(F)c(Oc4cncc(C(F)(F)F)c4)c(F)c3)nc(=O)n2CC1(C)C` [Example E61, 7-((3,5-difluoro-4-((5-(trifluoromethyl)pyridin-3-yl)oxy)benzyl)oxy)-1,2,2-trimethyl-2,3-dihydroimidazo[1,2-c]pyrimidin-5(1H)-one], the IC50 [1, 2] was ≤ 1 nM, the IC50 [1, 3] was 0.126 nM and the IC50 (Lp-PLA2 in human plasma) was ≤ 100 nM.
For `CN1c2cc(OCc3ccc(Oc4cncc(Cl)c4)c(F)c3)nc(=O)n2CC1(C)C` [Example E63, 7-((4-((5-chloropyridin-3-yl)oxy)-3-fluorobenzyl)oxy)-1,2,2-trimethyl-2,3-dihydroimidazo[1,2-c]pyrimidin-5(1H)-one], the IC50 [1, 2] was ≤ 1 nM, the IC50 [1, 3] was 0.1 nM and the IC50 (Lp-PLA2 in human plasma) was ≤ 100 nM.
`CN1c2cc(OCc3cc(F)c(Oc4ccc(F)nc4)c(F)c3)nc(=O)n2CC1(C)C` [Example E64, 7-((3,5-difluoro-4-((6-fluoropyridin-3-yl)oxy)benzyl)oxy)-1,2,2-trimethyl-2,3-dihydroimidazo[1,2-c]pyrimidin-5(1H)-one] was tested, and the IC50 [1, 2] was ≤ 1 nM, the IC50 [1, 3] was 0.0794 nM and the IC50 (Lp-PLA2 in human plasma) was ≤ 100 nM.
For `CN1c2cc(OCc3ccc(Oc4ccnc(Cl)c4)c(F)c3)nc(=O)n2CC1(C)C` [Example E65, 7-((4-((2-chloropyridin-4-yl)oxy)-3-fluorobenzyl)oxy)-1,2,2-trimethyl-2,3-dihydroimidazo[1,2-c]pyrimidin-5(1H)-one], the IC50 [1, 2] was ≤ 1 nM and the IC50 (Lp-PLA2 in human plasma) was ≤ 100 nM.
With `CCN1c2cc(OCc3cccc(F)c3F)nc(=O)n2CC1(C)C` [Example E66, 7-((2,3-difluorobenzyl)oxy)-1-ethyl-2,2-dimethyl-2,3-dihydroimidazo[1,2-c]pyrimidin-5(1H)-one] the IC50 [1, 2] was ≤ 10 nM and the IC50 (Lp-PLA2 in human plasma) was ≤ 100 nM.
For `[2H]C([2H])(Oc1cc2n(c(=O)n1)CC(C)(C)N2C)c1cccc(F)c1F` [Example E67, 7-(dideutero(2,3-difluorobenzyl)oxy)-1,2,2-trimethyl-2,3-dihydroimidazo[1,2-c]pyrimidin-5(1H)-one], the IC50 [1, 2] was ≤ 10 nM and the IC50 (Lp-PLA2 in human plasma) was ≤ 100 nM.
`CC1(C)Cn2c(cc(OCc3ccc(Oc4ccnc(F)c4)c(F)c3)nc2=O)N1` [Example E68, 7-((3-fluoro-4-((2-fluoropyridin-4-yl)oxy)benzyl)oxy)-2,2-dimethyl-2,3-dihydroimidazo[1,2-c]pyrimidin-5(1H)-one] was tested, and the IC50 [1, 2] was ≤ 1 nM and the IC50 (Lp-PLA2 in human plasma) was ≤ 100 nM.
In the case of `CC1(C)Cn2c(cc(OCc3ccc(Oc4ccc(F)nc4)c(F)c3)nc2=O)N1` [Example E69, 7-((3-fluoro-4-((6-fluoropyridin-3-yl)oxy)benzyl)oxy)-2,2-dimethyl-2,3-dihydroimidazo[1,2-c]pyrimidin-5(1H)-one], the IC50 [1, 2] was ≤ 1 nM and the IC50 (Lp-PLA2 in human plasma) was ≤ 100 nM.
With `CC1Cn2c(cc(OCc3ccc(Oc4cccc(C(F)(F)F)c4)c(C#N)c3)nc2=O)N1C` (centres unmarked) [Example E71, 5-(((1,2-dimethyl-5-oxo-1,2,3,5-tetrahydroimidazo[1,2-c]pyrimidin-7-yl)oxy)methyl)-2-(3-(trifluoromethyl)phenoxy)benzonitrile] the IC50 [1, 2] was ≤ 1 nM and the IC50 (Lp-PLA2 in human plasma) was ≤ 100 nM.
In the case of `C[C@H]1Cn2c(cc(OCc3cc(F)c(Oc4ccc(C(F)(F)F)nc4)c(F)c3)nc2=O)N1C` [Example E73, (S)-7-((3,5-difluoro-4-((6-(trifluoromethyl)pyridin-3-yl)oxy)benzyl)oxy)-1,2-dimethyl-1-2,3-dihydroimidazo[1,2-c]pyrimidin-5(1H)-one], the IC50 [1, 2] was ≤ 1 nM and the IC50 (Lp-PLA2 in human plasma) was ≤ 100 nM.
